Measurements taken from US20250340837A1, “CELLS” (University of Geneva, priority 2022, published 2025).
One block for each molecule: values may come before it.

Legend:
phoenix auditory neurons [1] = experiment: Induced Ca2+ cytosolic release (FLUO-8) in differentiated phoenix auditory neurons; format: cell-based, mouse; settings: for EC50: D7 differentiated phoenix SGCs, dose response from max-min amplitude, read-out: EC50 of induced Ca2+ transients; for Induction of Ca2+ transients: phoenix auditory neurons after 7 days of differentiation
Protocol: (A-C) Kinetics of Ca^2+ transients induced by (A) Glutamate (higher trace for the higher concentration), (B) ATP (higher trace for the higher concentration), (C) Kainate in phoenix auditory neurons after 7 days of differentiation. Phoenix auditory neurons were loaded with Ca^2+ sensitive ratiometric probe (FLUO-8) and stimulated with increasing concentrations of glutamate ([…]), ATP (0.005-10 μM) or kainate (0.02-50 μM). (D) Dose response curves were extracted from the max-min amplitude values, allowing the determination of an EC50 value (in order of highest to lowest effect: Ionomycin, ATP, Glutamate, Thapsigargin and Kainate (no effect for Kainate). (E). Ionomycin and Thapsigargin were used as positive control. Data represent the average+/−SEM of 3 independent experiments.
A total of 32,000 cells/well were differentiated to auditory neurons on a 96-well plate coated with Matrigel, as previously described (Rousset et al., 2020). Differentiated cells were loaded with FLUO-8 (Interchim), according to the manufacturer's protocol. After an incubation period of typically 45 min at 37° C. with the inducing agent or control, the induced cytosolic calcium release was assessed in a FDSS/pCELL Functional Drug Screening System (Hamamatsu). The neuronal kinetics of calcium release was followed over about 10 min following treatment, with one measure every 0.5 s.
(§1) To further explore the excitatory function of differentiated phoenix SGCs, Ca2+ mobilization was studied in response to several physiological stimuli, namely glutamate, ATP, and kainate (FIG. 4). […] Ionomycin, an ionophore facilitating the transport of divalent cations across cell membranes, and thapsigargin, inhibiting the SERCA pump and therefore the transfer of Ca^2+ toward endoplasmic reticulum, were used as positive controls (FIG. 4D). The excitatory pattern of phoenix SGCs was also compared with human fetal sphere-derived ones and mouse spiral ganglion explants using live Ca^2+ imaging. […] Therefore, at any passage and following differentiation, phoenix auditory SGCs resemble the auditory neuron physiology.
Further, the impact of BDNF and NT-3 alone or in combination on phoenix auditory neurons' glutamatergic function was assessed. Phoenix neuroprogenitors were plated on poly-ornithine and laminin coated 96 well plates and differentiated for 7 days with or without BDNF and NT-3 alone or in combination. To assess effect of neurotrophins, the auditory neuron were stimulated twice with glutamate: first with 10 μM (EC90) and 10 min later with 100 μM, eliciting a maximal glutamatergic response (FIG. 15A). Traces show the Ca2+ mobilization kinetics with 50 ng/mLNT-3+25 ng/mL BDNF (top light curve) or without neurotrophins (bottom dark curve) upon glutamate stimulation as recorded with Ca2+ sensitive ratiometric probe (FLUO-8). Arrows show the max-min amplitude of the response following the first (10 μM) or the second (100 μM) glutamate stimulation. Heatmaps showing the effect of BDNF and NT-3 alone or in combination on Ca2+ release (min-max amplitude) induced by 10 μM glutamate (FIG. 15B) and 100 μM glutamate (FIG. 15C).

C57Bl/6 ANPGs [2] = experiment: Neurosphere growth and self-propagation induction in low stemness ANPGs; format: cell-based, mouse
Protocol: (B) Picture showing representative triplicate of ANPG spheres cultured for 1 month in a 96 well plate. Phoenix cells are used as positive control. C57Bl/6: ANPGs were cultured in DMEM:F12+N2 and B27 supplements without growth factors. +GF: DMEM:F12+N2 and B27+FGF 10 ng/mL+EGF 20 ng/mL+IGF 50 ng/mL+Heparan Sulfate 50 ng/mL. GF+DS:DMEM:F12+N2 and B27+IGF+EFG+HS+FGF+LDN193189 0.5 μM+SB431542 10 μM. GF+CHIR: DMEM:F12+N2 and B27+IGF+EFG+HS+FGF+CHIR99021 3 μM. +GF+CHIR+DS: DMEM:F12+N2 and B27+IGF+EFG+HS+FGF+LDN193189 0.5 μM+SB431542 10 μM+CHIR99021 3 μM. Phoenix+GF: phoenix ANPG cultured in standard conditions (DMEM:F12+N2 and B27+IGF+EFG+HS+FGF). (C) Graph showing the average sphere area at different time points (up to 38 days). […] (D) Following DNA staining, flow cytometry was performed to determine the percentage of cells engaged in the cell cycle (phase S/G2M; proliferating). […] (E) After reprogramming, ANPGs were differentiated on Matrigel coating following removal of mitogenic factors. […]
(B) Representative pictures of ANPG spheres 4 days following the first passage cultured in “standard” conditions (GF) or (C, left) in conditions to induce stemness (GF+LDN193189 0.5 μM+SB431542 10 μM+CHIR99021 3 μM). […] (D) At every passage, following dissociation with Accutase, ANPGs were counted with a fast read counting chamber. […]

C57Bl/6 ANPGs [3] = experiment: Stemness reprogramming screen with pharmacological modulators plus CHIR99021; format: cell-based, mouse; settings: 30 days, with CHIR99021 3 μM
Protocol: (C) C57Bl/6 ANPGs were plated at 10,000 cells/well of a 96 well plate and treated with the WNT agonist (CHIR99021; 3 μM) and the above mentioned compounds (B) for 30 days. Graph representing the average growth (% ANPGs cultured in presence of GF+CHIR) after 30 days. […] Data represent the average±SEM of three independent experiments.
C57Bl/6 ANPGs were plated at 10,000 cells/well of a 96 well plate and treated with the WNT agonist (CHIR99021; 3 μM) and various modulator(s).

stemness-induced ANs = experiment: Glutamate-induced Ca2+ response in stemness-induced auditory neurons (Regenix); format: cell-based, mouse
Protocol: FIG. 21 Phenotypical characterization of stemness induced Auditory Neurons (ANs). (A) C57Bl/6 ANPG, were treated with WNT agonist (CHIR99021; 3 μM) or TGFb antagonist (dual SMAD inhibitors; LDN193189 0.5 μM, SB431542 10 μM) aiming at replicating phoenix ANPG stemness phenotype. After 38 days of induction, stemness-induced ANPGs were differentiated on Matrigel coating following removal of mitogenic factors. BDNF (10 ng/mL), NT-3 (50 ng/mL) and LIF (10 ng/mL) were added during the 7 days of differentiation. (B-E) Immunostainings in differentiated ANs were compared to stemness-induced ANPGs neurospheres at the same passage. (B-B′) B-III tubulin (TUJ, green) and Sox2 (red) stainings were respectively performed in (B) ANPGs and (B′) ANs. (C-C′) B-III tubulin (TUJ, green) and Nestin (Nes, red) stainings were respectively performed in (C) ANPGs and (C′) ANs. D-D′) B-III tubulin (TUJ, green) and S100 (red) stainings were respectively performed in (D) ANPGs and (D′) ANs. E-E′) B-III tubulin (TUJ) and KI67 stainings were respectively performed in (E) ANPGs and (E′) ANs. TUJ staining appears in green in ANPGs and red in ANs and KI67 appears in red in ANPGs and in green in ANs. […] (F-G) Excitatory potential of stemness-induced ANs was tested using live Ca^2+ imaging. Stemness-induced ANPGs were differentiated for 7 days in absence of growth factors. […]

[4] = test system: mouse spiral ganglion explants; experiment: Live Ca2+ imaging in mouse spiral ganglion explants; format: cell-based
Excerpt: as §1

[5] = test system: human fetal sphere-derived SGCs; experiment: Live Ca2+ imaging in human fetal sphere-derived SGCs; format: cell-based
Excerpt: as §1

phoenix auditory neurons [6] = experiment: Morphology of phoenix auditory neurons differentiated with neurotrophins (Imaris); format: cell-based, mouse; settings: 72 h differentiation; peaking at 100 ng/mL
Protocol: FIG. 14 Impact of BDNF and NT-3 supplementation on morphology of phoenix auditory neurons. Phoenix neuroprogenitors were differentiated for 72 h in presence of various concentrations of BDNF or NT-3 in 96-well plates. […] (A-D) The untreated control is represented by the bar in the left of each of the four graphs, BDNF treated specimens in the bars in the middle of each of the four graphs, and NT-3 treated by the bars on the right of each of the four graphs. The dashed horizontal grey line marks the median of the control group. The numbers on the x-axis denote neurotrophin concentrations in ng/ml. The horizontal lines in the boxes denote the median value and the dots the mean value. Whiskers extend from minimum to maximum. […] Exemplary images of differentiated cells after 72 h in culture and immunohistochemical staining without treatment (E) and supplementation of 100 ng/mL BDNF (F) and 100 ng/mL NT-3 (G). (E-G) Scale bar: 100 μm.
(§2) Organotypic spiral ganglion explant culture was carried out prior to in vitro phoenix sphere derived neuron assays, as shown in the workflow in FIG. 12. […] After fixation, specimens were stained with DAPI and for β-III-tubulin (TuJI antibody) to address the effect of neurotrophins on neurite outgrowth and neuron numbers, quantified with a modified Sholl analysis routine. For each explant, the neurite length index (NLI) was computed, and associated intersection counts served as approximation for neuron numbers. The lower rows show phoenix auditory neuroprogenitor sphere dissociation and induction of differentiation. To assess the outgrowth morphology, cells were seeded at 7,000 cells/well with presence of NT-3 or BDNF for 72 h. Differentiated cells were stained for β-III-tubulin, GFAP and DAPI for morphological analysis. Parameters such as the total neurite outgrowth, the number of neurons, the number of glial cells and the mean neurite length were assessed using a custom-made Imaris procedure. For a functional evaluation by means of a calcium response assay to glutamate, 30,000 cells were seeded per well and differentiated with supplementation of BDNF, NT-3 or combinations thereof. Via a fluorescent calcium binding dye, the cellular response to glutamate was quantified.
The impact of BDNF and NT-3 supplementation on morphology of phoenix auditory neurons was also assessed. Phoenix neuroprogenitors were differentiated for 72 h in presence of various concentrations of BDNF or NT-3 in 96-well plates.

[7] = test system: spiral ganglion explants (SGE); experiment: Organotypic spiral ganglion explant culture, neurite outgrowth and intersections (modified Sholl analysis); format: cell-based, mouse; settings: P7 SGE, 96 h; for Neurite outgrowth (neurite length index, NLI): compared to spontaneous outgrowth
Protocol: FIG. 13 Effect of BDNF and NT-3 alone or in combination on organotypic spiral ganglion explant culture morphology. Spiral ganglion explants (SGE) of freshly dissected P7 old mouse pups were seeded in poly-D-lysin and laminin coated 96 well plates and incubated without (n=94) or with BDNF, NT-3 or combinations of these for 96 h. Neurite outgrowth (A-C) and intersections (D-F) were quantified with representative explant micrographs underneath (G) for the given treatments. Numbers indicate the amount of neurotrophin added in ng/ml. […] In controls, a substantial outgrowth with a mean NLI of 20828 (±5647/4442; n=94), was registered. […] (D-F) Bar graphs show the intersection quantification, representing the approximated number of neurons with outgrowth. […] (A-F) Bars represent geometric means in μm; error bars indicate ±upper and lower 95% confidence intervals for the mean. The shaded area in the bottom section of each graph represents control levels (i.e. levels for samples that were not treated with BDNF and/or NT-3). One-way ANOVA, followed by Tukey-Kramer post-hoc test. Dunn non-parametric comparison with control, *p<0.05, **p<0.01, ***p<0.001.
as §2
The effect of BDNF and NT-3 alone or in combination on organotypic spiral ganglion explant culture morphology was assessed. […] Neurite outgrowth (FIG. 13 A-C) and intersections (FIG. 13 D-F) were quantified. […]

Molecule: Nc1ncnc2c1ncn2[C@@H]1O[C@H](COP(=O)(O)OP(=O)(O)OP(=O)(O)O)[C@@H](O)[C@H]1O [ATP]
EC50 (phoenix auditory neurons [1]): 430 nM
Induction of Ca2+ transients (phoenix auditory neurons [1]): Robust Ca^2+ transients

Molecule: Cc1c[nH]c(-c2cnc(NCCNc3ccc(C#N)cn3)nc2-c2ccc(Cl)cc2Cl)n1 [CHIR, CHIR99021]
ability of treated ANPGs to differentiate into neurons and glial cells (C57Bl/6 ANPGs [2]; 7 days differentiation on Matrigel, BIII-tubulin and S-100 staining): able to differentiate into neurons
expansion over passages (C57Bl/6 ANPGs [2]; number of cells/passage up to passage 13): not able to expand

Molecule: COc1cc(-c2cc(-c3cccc(O)c3)cnc2N)cc(OC)c1OC [compound 48, K02288]
stemness reprogramming, average growth (% ANPGs cultured in presence of GF+CHIR) (C57Bl/6 ANPGs [3]): hits

EC50 (phoenix auditory neurons [1]): 1160 nM
EC50 of glutamate-induced Ca2+ response (phoenix auditory neurons [1]; Phoenix ANs, glutamate increments, 1/2 serial dilutions): within the μM range
EC90 (phoenix auditory neurons [1]; first glutamate stimulation of phoenix auditory neurons, read-out: glutamate concentration given as EC90): 10000 nM
EC50 of glutamate-induced Ca2+ response (stemness-induced ANs; stemness-induced ANs (Regenix), glutamate increments, 1/2 serial dilutions): within the μM range
Molecule: N[C@@H](CCC(=O)O)C(=O)O [glutamate]
Induction of Ca2+ transients (phoenix auditory neurons [1]): Robust Ca^2+ transients
Ca2+ response, live Ca2+ imaging (stemness-induced ANs; glutamate 100 uM, siANs differentiated for 7 days): robust Ca2+ response

Molecule: C=C(C)[C@H]1CN[C@H](C(=O)O)[C@H]1CC(=O)O [kainate]
Evoked Ca2+ transients [4]: did not respond
Induction of Ca2+ transients (phoenix auditory neurons [1]): failed to induce Ca2+ excitatory transmission
Induction of Ca2+ transients (phoenix auditory neurons [1]; listed as Kainate): no effect
Evoked Ca2+ transients [5]: did not respond

B1: neurotrophin-3 (protein, UniProt P20783 139-257, looked up)
Neurotrophin-3: YAEHKSHRGEYSVCDSESLWVTDKSSAIDIRGHQVTVLGEIKTGNSPVKQYFYETRCKEARPVKNGCRGIDDKHWNSQCKTSQTYVRALTSENNKLVGWRWIRIDTSCVCALSRKIGRT
number of glial cells (exclusively GFAP positive cells) (phoenix auditory neurons [6]): increased in general in a dose depended manner
number of neurons (exclusively beta-III-tubulin positive cells) (phoenix auditory neurons [6]): increased in general in a dose depended manner
total neurite outgrowth (phoenix auditory neurons [6]): increased in general in a dose depended manner
Intersections (approximated number of neurons with outgrowth) [7]: rose significantly in a dose-dependent manner
Neurite outgrowth (neurite length index, NLI) [7]: significantly enhanced

B2: brain-derived neurotrophic factor (protein, UniProt P23560 19-247, looked up)
Neurotrophic factor BDNF …: APMKEANIRGQGGLAYPGVRTHGTLESVNGPKAGSRGLTSLADTFEHVIEELLDEDQKVRPNEENNKDADLYTSRVMLSSQVPLEPPLLFLLEEYKNYLDAANMSMRVRRHSDPARRGELSVCDSISEWVTAADKKTAVDMSGGTVTVLEKVPVSKGQLKQYFYETKCNPMGYTKEGCRGIDKRHWNSQCRTTQSYVRALTMDSKKRIGWRFIRIDTSCVCTLTIKRGR
notes: neurotrophin
number of glial cells (exclusively GFAP positive cells) (phoenix auditory neurons [6]): increased in general in a dose depended manner
number of neurons (exclusively beta-III-tubulin positive cells) (phoenix auditory neurons [6]): increased in general in a dose depended manner
total neurite outgrowth (phoenix auditory neurons [6]): increased in general in a dose depended manner
Intersections (approximated number of neurons with outgrowth) [7]: rose significantly in a dose-dependent manner
Neurite outgrowth (neurite length index, NLI) [7]: significantly enhanced
